In this data set the test system is CCRIS mutagenicity, Ames/micronucleus/aberration tests. The data set can be described thus: CCRIS mutagenicity studies.
The mark [1] stands for this setting: Test System: AMES SALMONELLA TYPHIMURIUM, Strain/Indicator: TA98, Metabolic Activation: NONE, Method: STANDARD PLATE.
[2] abbreviates: Test System: AMES SALMONELLA TYPHIMURIUM, Strain/Indicator: TA100, Metabolic Activation: NONE, Method: STANDARD PLATE.

Activity calls are given as the source filed them. How the calls were made is not given here.

`Cc1c(C(=O)O)c(O)cc2c1C(=O)c1c(O)c([C@@H]3O[C@H](CO)[C@@H](O)[C@H](O)[C@H]3O)c(O)c(O)c1C2=O`: the mutagenic call is “inactive; negative” (Test System: AMES SALMONELLA TYPHIMURIUM, Strain/Indicator: TA98, Metabolic Activation: HAMSTER, LIVER, S-9, AROCLOR 1254, Method: STANDARD PLATE); “inactive; negative” (Test System: AMES SALMONELLA TYPHIMURIUM, Strain/Indicator: TA98, Metabolic Activation: NONE); “inactive; negative” under setting [1]; “inactive; negative” (Test System: AMES SALMONELLA TYPHIMURIUM, Strain/Indicator: TA98, Metabolic Activation: RAT, LIVER, S-9, AROCLOR 1254 (10 OR 30%)); “inactive; negative” (Test System: AMES SALMONELLA TYPHIMURIUM, Strain/Indicator: TA98, Metabolic Activation: RAT, LIVER, S-9, AROCLOR 1254, Method: STANDARD PLATE); “inactive; negative” (Test System: AMES SALMONELLA TYPHIMURIUM, Strain/Indicator: TA100, Metabolic Activation: HAMSTER, LIVER, S-9, AROCLOR 1254, Method: STANDARD PLATE). Also, the mutagenic call (Test System: AMES SALMONELLA TYPHIMURIUM, Strain/Indicator: TA100, Metabolic Activation: NONE) is “inactive; negative”; the mutagenic call under setting [2] was “inactive; negative”; the mutagenic call (Test System: AMES SALMONELLA TYPHIMURIUM, Strain/Indicator: TA100, Metabolic Activation: RAT, LIVER, S-9, AROCLOR 1254 (10%)) is “inactive; negative”; the mutagenic call (Test System: AMES SALMONELLA TYPHIMURIUM, Strain/Indicator: TA100, Metabolic Activation: RAT, LIVER, S-9, AROCLOR 1254 (10 OR 30%)) is “inactive; negative”; the mutagenic call (Test System: AMES SALMONELLA TYPHIMURIUM, Strain/Indicator: TA100, Metabolic Activation: RAT, LIVER, S-9, AROCLOR 1254, Method: STANDARD PLATE) was “inactive; negative”; the mutagenic call (Test System: AMES SALMONELLA TYPHIMURIUM, Strain/Indicator: TA1535, Metabolic Activation: HAMSTER, LIVER, S-9, AROCLOR 1254, Method: STANDARD PLATE) was “inactive; negative”. Further, the mutagenic call (Test System: AMES SALMONELLA TYPHIMURIUM, Strain/Indicator: TA1535, Metabolic Activation: NONE) is “inactive; negative”; the mutagenic call (Test System: AMES SALMONELLA TYPHIMURIUM, Strain/Indicator: TA1535, Metabolic Activation: NONE, Method: STANDARD PLATE) is “inactive; negative”; the mutagenic call (Test System: AMES SALMONELLA TYPHIMURIUM, Strain/Indicator: TA1535, Metabolic Activation: RAT, LIVER, S-9, AROCLOR 1254 (10 OR 30%)) is “inactive; negative”; the mutagenic call (Test System: AMES SALMONELLA TYPHIMURIUM, Strain/Indicator: TA1535, Metabolic Activation: RAT, LIVER, S-9, AROCLOR 1254, Method: STANDARD PLATE) was “inactive; negative”; the mutagenic call (Test System: AMES SALMONELLA TYPHIMURIUM, Strain/Indicator: TA1537, Metabolic Activation: HAMSTER, LIVER, S-9, AROCLOR 1254, Method: STANDARD PLATE) is “inactive; negative”; the mutagenic call (Test System: AMES SALMONELLA TYPHIMURIUM, Strain/Indicator: TA1537, Metabolic Activation: NONE) was “inactive; negative”. For the same compound, the mutagenic call was “inactive; negative” (Test System: AMES SALMONELLA TYPHIMURIUM, Strain/Indicator: TA1537, Metabolic Activation: NONE, Method: STANDARD PLATE); “inactive; negative” (Test System: AMES SALMONELLA TYPHIMURIUM, Strain/Indicator: TA1537, Metabolic Activation: RAT, LIVER, S-9, AROCLOR 1254 (10 OR 30%)); “inactive; negative” (Test System: AMES SALMONELLA TYPHIMURIUM, Strain/Indicator: TA1537, Metabolic Activation: RAT, LIVER, S-9, AROCLOR 1254, Method: STANDARD PLATE); “inactive; negative” (Test System: AMES SALMONELLA TYPHIMURIUM, Strain/Indicator: TA1538, Metabolic Activation: HAMSTER, LIVER, S-9, AROCLOR 1254, Method: STANDARD PLATE); “inactive; negative” (Test System: AMES SALMONELLA TYPHIMURIUM, Strain/Indicator: TA1538, Metabolic Activation: NONE, Method: STANDARD PLATE); “inactive; negative” (Test System: AMES SALMONELLA TYPHIMURIUM, Strain/Indicator: TA1538, Metabolic Activation: RAT, LIVER, S-9, AROCLOR 1254, Method: STANDARD PLATE). Moreover, the mutagenic call is “active; positive. reevaluation of results: positive” (Test System: MOUSE LYMPHOMA, Strain/Indicator: L5178Y (TK+/TK-), Metabolic Activation: NONE, Method: SUSPENSION/PLATE); “active; positive. reevaluation of results: positive” (Test System: MOUSE LYMPHOMA, Strain/Indicator: L5178Y (TK+/TK-), Metabolic Activation: RAT, LIVER, S-9, AROCLOR 1254, Method: SUSPENSION/PLATE); “inactive; negative” (Test System: UDS RODENT HEPATOCYTES, Strain/Indicator: THY INCORP, Metabolic Activation: NONE, Method: AUTORADIOGRAPHY).

`C[C@@H]1CC[C@@]2(OC1)O[C@H]1CC3[C@@H]4CC=C5C[C@@H](O[C@@H]6O[C@H](CO)[C@@H](O[C@@H]7O[C@@H](C)[C@H](O)[C@@H](O)[C@H]7O)[C@H](O)[C@H]6O[C@@H]6O[C@@H](C)[C@H](O)[C@@H](O)[C@H]6O)CC[C@]5(C)[C@H]4CC[C@]3(C)[C@H]1[C@@H]2C` (stereo partly specified): the mutagenic call under setting [1] was “inactive; negative”; the mutagenic call (Test System: AMES SALMONELLA TYPHIMURIUM, Strain/Indicator: TA98, Metabolic Activation: RAT, LIVER, S-9, PHENOBARBITAL, Method: STANDARD PLATE) is “inactive; negative”; the mutagenic call under setting [2] was “inactive; negative”; the mutagenic call (Test System: AMES SALMONELLA TYPHIMURIUM, Strain/Indicator: TA100, Metabolic Activation: RAT, LIVER, S-9, PHENOBARBITAL, Method: STANDARD PLATE) is “inactive; negative”.

The values are drawn from PubChem BioAssay AID1259407 (Chemical Carcinogenesis Research Information System (CCRIS), 2018).
